Assay results from ChEMBL document CHEMBL1201862, “PubChem BioAssay data set” (2004).
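Assay format: 96-well plates, 48-hour exposure. Abbreviation: GI50, concentration required for 50% inhibition of growth.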 The source made the active and inactive calls. Cut-off read from the data, not from the text of the source: active = GI50 up to about 1.1 µM and inactive = higher.

Key:
Experiment in all cases: NCI-60 cell line screen, 48 h
IGROV-1 = system: IGROV-1
SN12C = system: SN12C
CCRF-CEM = system: CCRF-CEM
ACHN = system: ACHN
UACC-62 = system: UACC-62
A549 = system: A549
HT-29 = system: HT-29
OVCAR-5 = system: OVCAR-5
MDA-MB-231 = system: MDA-MB-231
TK-10 = system: TK-10
RXF 393 = system: RXF 393
PC-3 = system: PC-3
SF-295 = system: SF-295
OVCAR-3 = system: OVCAR-3
T47D = system: T47D
SF-268 = system: SF-268
SK-OV-3 = system: SK-OV-3
HCC 2998 = system: HCC 2998
KM12 = system: KM12
HCT-116 = system: HCT-116
HOP-92 = system: HOP-92
MCF7 = system: MCF7
NCI/ADR-RES = system: NCI/ADR-RES
NCI-H23 = system: NCI-H23
CAKI-1 = system: CAKI-1
BT-549 = system: BT-549
Hs-578T = system: Hs-578T
MDA-MB-435 = system: MDA-MB-435
UO-31 = system: UO-31
MOLT-4 = system: MOLT-4
A498 = system: A498
SK-MEL-28 = system: SK-MEL-28
M14 = system: M14
HCT-15 = system: HCT-15
OVCAR-8 = system: OVCAR-8
DU-145 = system: DU-145
NCI-H522 = system: NCI-H522
U-251 = system: U-251
RPMI-8226 = system: RPMI-8226
COLO 205 = system: COLO 205
OVCAR-4 = system: OVCAR-4
UACC-257 = system: UACC-257
SK-MEL-5 = system: SK-MEL-5
NCI-H226 = system: NCI-H226
K562 = system: K562
SK-MEL-2 = system: SK-MEL-2
EKVX = system: EKVX
786-0 = system: 786-0
SNB-19 = system: SNB-19
SNB-75 = system: SNB-75
NCI-H460 = system: NCI-H460
SW-620 = system: SW-620
HOP-62 = system: HOP-62
LOX IMVI = system: LOX IMVI

Nc1nc(N)c2ncn(-c3ccccc3)c2n1
GI50 (IGROV-1): 36.3 µM (inactive) | GI50 (SN12C): 88.3 µM (inactive) | GI50 (CCRF-CEM): 23.7 µM (inactive) | GI50 (ACHN): > 100 µM (inactive) | GI50 (UACC-62): 71 µM (inactive) | GI50 (A549): 48.9 µM (inactive) | GI50 (HT-29): > 100 µM (inactive) | GI50 (OVCAR-5): > 100 µM (inactive) | GI50 (MDA-MB-231): > 100 µM (inactive) | GI50 (TK-10): > 100 µM (inactive) | GI50 (RXF 393): 57.9 µM (inactive) | GI50 (PC-3): > 100 µM (inactive) | GI50 (SF-295): > 100 µM (inactive) | GI50 (OVCAR-3): 89.9 µM (inactive) | GI50 (T47D): > 100 µM (inactive) | GI50 (SF-268): > 100 µM (inactive) | GI50 (SK-OV-3): > 100 µM (inactive) | GI50 (HCC 2998): 48.4 µM (inactive) | GI50 (KM12): 24.2 µM (inactive) | GI50 (HCT-116): > 100 µM (inactive) | GI50 (HOP-92): > 100 µM (inactive) | GI50 (MCF7): 63.8 µM (inactive) | GI50 (NCI/ADR-RES): > 100 µM (inactive) | GI50 (NCI-H23): > 100 µM (inactive) | GI50 (CAKI-1): 82.6 µM (inactive) | GI50 (BT-549): > 100 µM (inactive) | GI50 (Hs-578T): 52.6 µM (inactive) | GI50 (MDA-MB-435): > 100 µM (inactive) | GI50 (UO-31): 68.2 µM (inactive) | GI50 (MOLT-4): 29.6 µM (inactive) | GI50 (A498): > 100 µM (inactive) | GI50 (SK-MEL-28): > 100 µM (inactive) | GI50 (M14): > 100 µM (inactive) | GI50 (HCT-15): > 100 µM | GI50 (OVCAR-8): > 100 µM (inactive) | GI50 (DU-145): > 100 µM (inactive) | GI50 (NCI-H522): > 100 µM (inactive)

CN1C(=O)C(=Cc2ccc(Br)cc2)C(=O)N(C)C1=O
GI50 (U-251): > 100 µM (inactive) | GI50 (RPMI-8226): > 100 µM (inactive) | GI50 (CCRF-CEM): > 100 µM (inactive) | GI50 (ACHN): > 100 µM (inactive) | GI50 (COLO 205): > 100 µM (inactive) | GI50 (UACC-62): > 100 µM (inactive) | GI50 (A549): > 100 µM (inactive) | GI50 (OVCAR-5): > 100 µM (inactive) | GI50 (OVCAR-4): > 100 µM (inactive) | GI50 (MDA-MB-231): > 100 µM (inactive) | GI50 (TK-10): > 100 µM (inactive) | GI50 (RXF 393): 40.8 µM (inactive) | GI50 (PC-3): > 100 µM (inactive) | GI50 (UACC-257): > 100 µM (inactive) | GI50 (SF-295): > 100 µM (inactive) | GI50 (SK-MEL-5): > 100 µM (inactive) | GI50 (NCI-H226): > 100 µM (inactive) | GI50 (OVCAR-3): > 100 µM (inactive) | GI50 (K562): 5.45 µM (inactive) | GI50 (SK-MEL-2): > 100 µM (inactive) | GI50 (EKVX): > 100 µM (inactive) | GI50 (T47D): > 100 µM (inactive) | GI50 (786-0): > 100 µM (inactive) | GI50 (SNB-19): > 100 µM (inactive) | GI50 (SF-268): > 100 µM (inactive) | GI50 (SK-OV-3): > 100 µM (inactive) | GI50 (SNB-75): > 100 µM (inactive) | GI50 (HCC 2998): > 100 µM (inactive) | GI50 (KM12): > 100 µM (inactive) | GI50 (HCT-116): > 100 µM (inactive) | GI50 (HOP-92): > 100 µM (inactive) | GI50 (NCI-H460): > 100 µM (inactive) | GI50 (SW-620): > 100 µM (inactive) | GI50 (MCF7): > 100 µM (inactive) | GI50 (NCI/ADR-RES): > 100 µM (inactive) | GI50 (HOP-62): > 100 µM (inactive) | GI50 (NCI-H23): > 100 µM (inactive) | GI50 (CAKI-1): > 100 µM (inactive) | GI50 (BT-549): > 100 µM (inactive) | GI50 (MDA-MB-435): > 100 µM (inactive) | GI50 (UO-31): > 100 µM (inactive) | GI50 (LOX IMVI): > 100 µM (inactive) | GI50 (MOLT-4): 14.1 µM (inactive) | GI50 (A498): > 100 µM (inactive) | GI50 (SK-MEL-28): > 100 µM (inactive) | GI50 (M14): > 100 µM (inactive) | GI50 (HCT-15): > 100 µM | GI50 (DU-145): > 100 µM (inactive)
